{"source": "a melting point compilation (Tetko et al.; mined from patent text by program, amines drawn as free bases though some values may be those of a salt)", "note": "Residues, ends and D or L forms follow the SMILES beside them. *: point of attachment. OiPr = CC(C)O*"}
{"units": {"melting point": "°C"}}
{"molecule": "CCCn1c(=O)c2c(NC)n(C(C)=O)nc2n(Cc2cccc(Cl)c2)c1=O", "melting point": "169 to 171"}
{"molecule": "c1ccc2c(c1)Cn1cnnc1CN2", "melting point": "232 to 237"}
{"molecule": "CCOC(=O)c1cnoc1-c1ccc(Cl)c(Br)c1", "melting point": "109 to 110"}
{"molecule": "COC(=O)c1ccc(N=C2NCCN2)c(C)c1", "melting point": "193 to 194"}
{"molecule": "CCn1c2c(c3ccccc31)Cc1c(C(=O)OC)c(C(=O)OC)c(C)n1C2", "melting point": "202 to 203"}
{"molecule": "CN1C(=O)COc2cc3c(cc21)C1(CO3)C(=O)N(CC2CCCO2)c2ccccc21", "note": "(stereo not drawn)", "melting point": "79 to 81"}
{"molecule": "CN1CCN(c2ccc(C(=O)N[C@H]3CC[C@H](CCN4CCN(c5nccc6c5OCC6)CC4)CC3)cc2)CC1", "melting point": 236}
{"molecule": "CNC(=O)Nc1occ(C(C)(C)C)c1C#N", "melting point": 163}
{"molecule": "CCCCN1CCC(CNC(=O)c2ccc(N)n3cc(-c4ccccc4)nc23)CC1", "melting point": 221}
{"molecule": "Fc1ccc(-c2c[nH]cc2-c2ccc(F)cc2)cc1", "melting point": 142}
{"molecule": "Cc1cc(-c2nc3c(C)cc(Cl)nn3c2-c2ccnc(NC(=O)c3ccc(F)cc3)c2)ccc1F", "melting point": "235 to 236"}
{"molecule": "CCOC(=O)/C=C1\\CCOc2ccc(N)cc21", "melting point": 97}
{"molecule": "NS(=O)(=O)c1ccc(-c2nc(C(F)(F)F)[nH]c2-c2ccc(F)cc2)cc1", "melting point": "259 to 260"}
{"molecule": "CC(C)(C)OC(=O)N1CCCC(O)(C#Cc2cccc(Cl)c2)C1", "note": "(stereo not drawn)", "melting point": "128 to 129"}
{"molecule": "Oc1cnc2[nH]ccc2c1", "melting point": "206 to 209"}
{"molecule": "C[C@H](NC(=O)OCc1ccccc1)C(=O)N1CCC[C@H]1C(=O)Nc1ccccc1", "melting point": "138 to 139"}
{"molecule": "CN1C(=O)CCC(C(=O)O)C1c1ccc2c(c1)OCO2", "note": "(stereo not drawn)", "melting point": "231 to 232"}
{"molecule": "OC1CSC(Oc2ccccc2-c2ccoc2)C(O)C1O", "note": "(stereo not drawn)", "melting point": 102}
{"molecule": "CC(C)CC(NC(=O)N1CCc2cc(S(=O)(=O)N3CCN(c4cccc(Cl)c4)CC3)ccc21)C(=O)O", "note": "(stereo not drawn)", "melting point": "138 to 140"}
{"molecule": "CS(=O)(=O)c1ccc(-c2nc(C(F)(F)F)[nH]c2-c2ccccc2)cc1", "melting point": "228 to 230"}
{"molecule": "COc1c(C)c(C)c2c(c1C)C(c1ccc(CCCCCCC(=O)O)cc1)C(C)(C)O2", "note": "(stereo not drawn)", "melting point": "88 to 89"}
{"molecule": "COc1ccccc1NC(=O)Nc1nc(Nc2ccccc2-c2ccccc2)nc(N2CCC(C(=O)O)CC2)n1", "melting point": "130 to 135"}
{"molecule": "O=C(O)Cc1cccc(Oc2ccc(Cl)cc2)c1O", "melting point": "100 to 102"}
{"molecule": "COc1ccc(/C=C(\\C#N)c2ccccn2)cc1OC1CCCC1", "melting point": "82.5 to 83"}
{"molecule": "Cc1cc(-c2ccc(OC(F)(F)F)cc2)ccc1C1COC(c2c(F)cccc2F)=N1", "note": "(stereo not drawn)", "melting point": "78.5 to 79"}
{"molecule": "COc1c(C(=O)O)nnn1Cc1ccccc1Cl", "melting point": "130 to 135"}
{"molecule": "COC(=O)COc1ccc(CCCOS(C)(=O)=O)cc1", "melting point": "49 to 51"}
{"molecule": "Cc1cc(OCc2coc(C=Cc3ccc(SC(F)(F)F)cc3)n2)ccc1COCCn1ccnn1", "melting point": 102}
{"molecule": "N#CCCNC(=O)Nc1cc(N2CC(c3ccccc3)CC2=O)ccn1", "note": "(stereo not drawn)", "melting point": "260 to 263"}
{"molecule": "Cc1c(-c2ccccc2)oc2c(S(=O)(=O)N(C)CCO)cccc2c1=O", "melting point": "146 to 147"}
{"molecule": "O=C(O)c1ccc(-c2ccc3cc(O)c(C45CC6CC(CC(C6)C4)C5)cc3c2)cc1O", "melting point": "261 to 264"}
{"molecule": "O=C(c1ccc2nonc2c1)N1CC2CCC1C2", "note": "(stereo not drawn)", "melting point": "92 to 93"}
{"molecule": "COc1ccccc1N1CCN(C2CCN(c3noc4ccccc34)CC2)CC1", "melting point": "71 to 73"}
{"molecule": "CC(C)OC(=O)C(C)NC(=O)C(CC(=O)O)NC(=O)C(C)N", "note": "(stereo not drawn) (H-Ala-Asp-Ala-OiPr; configuration not given here)", "melting point": "219 to 221"}
{"molecule": "CC(C)(C)c1ccc(-c2cc3ccc(C(=O)O)cc3[nH]2)cc1", "melting point": 297}
{"molecule": "CC(=O)OC1C(C)=C(C)C(=O)N1c1nc2ccc(F)cc2s1", "note": "(stereo not drawn)", "melting point": "180 to 183"}
{"molecule": "O=c1[nH]c2cc(F)c(F)cc2c(=O)n1OCc1ccccc1", "melting point": "> 250"}
{"molecule": "O=C=Nc1ccc(OC(=O)COCCOCC(=O)Oc2ccc(N=C=O)cc2)cc1", "melting point": "139 to 142"}
{"molecule": "O=C1Nc2ccsc2C(=O)N2CC[C@@H]12", "melting point": 274}
{"molecule": "COc1ccnc(C(=O)NCCNC(=O)OC(C)(C)C)c1", "melting point": "106 to 107"}
{"molecule": "COc1ccc(Oc2c(Br)cc(C=O)cc2[N+](=O)[O-])cc1Cc1ccc(=O)[nH]n1", "melting point": "188 to 190"}
{"molecule": "O=C(O)c1cccc2c1CCc1ccsc1-2", "melting point": "182 to 184"}
{"molecule": "O=C(NCc1cn(-c2ccc(N3CCOCC3)c(F)c2)nn1)C(Cl)Cl", "melting point": 190}
{"molecule": "CCOCc1nc2c(N)nc3cc(CCCO)ccc3c2n1CC(C)(C)O", "melting point": "177 to 178"}
{"molecule": "COc1ccc(-c2c(C)ccn2-c2ccc(S(C)(=O)=O)cc2)cc1", "melting point": "131 to 132"}
{"molecule": "CCN(C(=O)C1CC1)c1cccc(-c2ccnc3c(C(=O)c4ccco4)cnn23)c1", "melting point": "182 to 184"}
{"molecule": "CC(C)(C)c1cc(SCCOC(=O)c2cc(C(C)(C)C)c(O)c(C(C)(C)C)c2)cc(C(C)(C)C)c1O", "melting point": "136 to 139"}
{"molecule": "CC(C)(C)c1ccc(-c2nc(COc3cccc4cc(NS(=O)(=O)C(F)(F)F)ccc34)cs2)cc1", "melting point": "174 to 175"}
